Measured values from US20200009143A1, “REPURPOSING OF CANCER DRUGS FOR TREATMENT OF MYCOBACTERIUM” (STC.UNM, priority 2016, published 2020).

What was measured:
[1] = tested on: RAW 264.7 macrophages; details: PARP inhibition; cited from earlier work
[2] = human, in vivo; cited from earlier work
[3] = tested on: tuberculosis; details: systemically delivered, despite significant plasma levels; cited from earlier work
[4] = biological target: PARP (Mus musculus, UniProt P11103); assay: whole cell PARP inhibition in UV-activated RAW 264.7 macrophages, PARP activity by ELISA; format: cell-based
[5] = in vivo; cited from earlier work

Chain of PARP (P11103 2-1013): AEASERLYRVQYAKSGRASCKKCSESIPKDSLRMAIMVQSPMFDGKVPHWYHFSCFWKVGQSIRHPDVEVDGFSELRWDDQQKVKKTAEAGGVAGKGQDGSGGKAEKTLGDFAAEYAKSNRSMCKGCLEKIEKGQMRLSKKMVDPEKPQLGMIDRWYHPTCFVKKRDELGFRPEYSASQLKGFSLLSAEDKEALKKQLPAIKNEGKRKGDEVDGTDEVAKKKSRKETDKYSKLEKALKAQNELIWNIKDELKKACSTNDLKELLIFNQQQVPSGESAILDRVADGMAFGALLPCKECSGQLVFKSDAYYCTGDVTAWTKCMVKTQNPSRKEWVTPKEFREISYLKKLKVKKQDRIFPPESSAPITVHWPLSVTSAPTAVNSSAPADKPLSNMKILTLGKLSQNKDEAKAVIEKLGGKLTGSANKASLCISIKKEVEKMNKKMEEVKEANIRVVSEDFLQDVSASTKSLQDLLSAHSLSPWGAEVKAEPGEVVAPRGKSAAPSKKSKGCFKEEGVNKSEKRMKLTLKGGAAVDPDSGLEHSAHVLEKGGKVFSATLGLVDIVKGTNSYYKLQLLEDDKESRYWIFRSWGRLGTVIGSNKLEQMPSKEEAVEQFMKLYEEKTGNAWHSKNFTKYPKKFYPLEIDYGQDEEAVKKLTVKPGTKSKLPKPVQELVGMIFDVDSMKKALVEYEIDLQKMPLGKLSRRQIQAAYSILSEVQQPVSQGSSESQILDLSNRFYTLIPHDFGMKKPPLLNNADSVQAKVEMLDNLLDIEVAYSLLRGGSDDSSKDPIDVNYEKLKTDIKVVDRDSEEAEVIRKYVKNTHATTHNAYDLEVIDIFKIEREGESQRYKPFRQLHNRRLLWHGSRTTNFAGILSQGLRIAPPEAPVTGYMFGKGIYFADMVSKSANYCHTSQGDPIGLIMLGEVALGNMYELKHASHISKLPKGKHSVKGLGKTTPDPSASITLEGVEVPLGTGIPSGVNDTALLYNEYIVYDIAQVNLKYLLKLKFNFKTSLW

| SMILES | inhibition of mycobacteria-induced macrophage necrosis [1] | steady state peak plasma level [2] | efficacy in vivo [3] | PARP inhibition (in words) ([4]; at levels readily achieved during conventional PZA therapy) | ratio of plasma Cmax/IC50 ([4]; known peak plasma level in TB patients over whole-cell PARP IC50) | distribution in human granulomas [5] |
| --- | --- | --- | --- | --- | --- | --- |
| NC(=O)c1cccc(N)c1 [3-aminobenzamide] | strongly inhibited |  |  |  |  |  |
| O=C(O)c1cnccn1 [POA, pyrazinoic acid] |  | 300 µM | ineffective | potent inhibitor | 20 | wide distribution |
| NC(=O)c1cnccn1 [PZA, pyrazinamide] |  | about 500 μM |  |  |  |  |
